Data on seven test systems can be found in the supplement of paper PMC6045584.

Compound in experiment [1]: C[C@H](CN(C)C)Oc1nc(Nc2cc3cccc(Cl)c3cn2)cnc1C#N
Briefly: surviving fraction relative to DMSO-only wells; higher = less growth inhibition. Particulars: exposure time: 5 days. In outline: (§1)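 At 250–500 cells per well in 384-well plates, log-phase tumour cell lines were seeded and, 24 hours on, exposed continuously for five days to inhibitors at 0.5, 1, 5, 10, 50, 100, 500 and 1000 nM. Viability readout was CellTiter-Glo luminescence, reported as surviving fraction normalised to the median of DMSO-only wells.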

Compound in another experiment: Cc1ccc(NC(=O)c2ccc(CN3CCN(C)CC3)cc2)cc1Nc1nccc(-c2cccnc2)n1 [IMATINIB]
Described as above. Particulars: exposure time: 5 days. In outline:
as §1

± gives the standard deviation of the averaged measurements.

As for HCC70 BREAST, the surviving fraction worked out at 1.07 ± 0.06 in experiment [1] (0.5 nM); 1.11 ± 0.14 in experiment [1] (1 nM); 1.01 ± 0.038 in experiment [1] (5 nM); 1.09 ± 0.034 in experiment [1] (10 nM); 1.1 ± 0.045 in experiment [1] (50 nM); 1.14 ± 0.025 in experiment [1] (100 nM). Also, the surviving fraction in experiment [1] (500 nM) was found to be 0.639 ± 0.086; in experiment [1] (1000 nM) it was 0.191 ± 0.021; with IMATINIB (0.5 nM), 1.116 ± 0.0051; with IMATINIB (1 nM) it was 1.08 ± 0.071; with IMATINIB (5 nM), 1.04 ± 0.04; with IMATINIB (10 nM), 1.1 ± 0.054. Moreover, the values for the surviving fraction in the experiment with IMATINIB (50 nM), with IMATINIB (100 nM) and with IMATINIB (1000 nM) were 1.17 ± 0.11, 1.15 ± 0.043 and 1.45 ± 0.69, respectively.

Take G292 BONE: the surviving fraction in experiment [1] (0.5 nM) was 1.06 ± 0.053; in experiment [1] (1 nM) it was 1.02 ± 0.012; in experiment [1] (5 nM) it was 1.05 ± 0.021; in experiment [1] (10 nM), 1.05 ± 0.075; in experiment [1] (50 nM), 1.107 ± 0.0061; in experiment [1] (100 nM) it was 1.08 ± 0.061. Also, the surviving fraction in experiment [1] (500 nM) came to 0.648 ± 0.046; in experiment [1] (1000 nM), 0.43 ± 0.028; with IMATINIB (0.5 nM) it was 1.01 ± 0.037; with IMATINIB (1 nM), 1.038 ± 0.0097; with IMATINIB (5 nM), 1.09 ± 0.024; with IMATINIB (10 nM), 1.05 ± 0.024. Besides, the surviving fraction with IMATINIB (100 nM) is 1.04 ± 0.028; with IMATINIB (500 nM) it was 0.862 ± 0.029; with IMATINIB (1000 nM), 0.923 ± 0.065.

HMT3552 BREAST: the surviving fraction is 0.984 ± 0.029 in experiment [1] (0.5 nM); 1.04 ± 0.043 in experiment [1] (1 nM); 1.08 ± 0.093 in experiment [1] (5 nM); 1.04 ± 0.036 in experiment [1] (10 nM); 1.22 ± 0.018 in experiment [1] (50 nM); 1.19 ± 0.064 in experiment [1] (100 nM). Besides, the surviving fraction was found to be 0.121 ± 0.016 in experiment [1] (500 nM); 0.103 ± 0.01 in experiment [1] (1000 nM); 1.01 ± 0.039 in the experiment with IMATINIB (0.5 nM); 0.967 ± 0.041 with IMATINIB (1 nM); 1.04 ± 0.032 with IMATINIB (5 nM); 0.988 ± 0.057 in the experiment with IMATINIB (10 nM). The surviving fraction with IMATINIB (50 nM) was 1.15 ± 0.061; in the experiment with IMATINIB (100 nM), 1.17 ± 0.062; with IMATINIB (500 nM) it was 1.18 ± 0.047; with IMATINIB (1000 nM) it was 1.16 ± 0.076.

On to CCK81 LARGE INTESTINE, for which the surviving fraction in experiment [1] (0.5 nM) came to 0.681 ± 0.1; in experiment [1] (1 nM), 0.819 ± 0.097; in experiment [1] (5 nM), 0.726 ± 0.09; in experiment [1] (10 nM) it was 0.739 ± 0.029; in experiment [1] (50 nM), 0.774 ± 0.15; in experiment [1] (100 nM), 0.52 ± 0.084. In addition, the surviving fraction in experiment [1] (500 nM) came to 0.349 ± 0.069; in experiment [1] (1000 nM), 0.374 ± 0.049; with IMATINIB (0.5 nM) it was 0.813 ± 0.083; in the experiment with IMATINIB (1 nM) it was 0.815 ± 0.09; in the experiment with IMATINIB (5 nM), 0.81 ± 0.038; with IMATINIB (10 nM) it was 0.795 ± 0.048. For the same test system, the surviving fraction with IMATINIB (50 nM) was 0.706 ± 0.049; in the experiment with IMATINIB (100 nM) it was 0.843 ± 0.11; with IMATINIB (500 nM) it was 0.741 ± 0.078; in the experiment with IMATINIB (1000 nM), 0.778 ± 0.047.

For HCC38 BREAST, the surviving fraction in experiment [1] (0.5 nM) turned out to be 1.25 ± 0.22; in experiment [1] (1 nM), 1.32 ± 0.18; in experiment [1] (5 nM) it was 1.36 ± 0.28; in experiment [1] (10 nM) it was 1.3 ± 0.14; in experiment [1] (50 nM) it was 0.989 ± 0.06; in experiment [1] (100 nM) it was 0.821 ± 0.23. Besides, the surviving fraction in experiment [1] (500 nM) is 0.125 ± 0.028; in experiment [1] (1000 nM), 0.0697 ± 0.013; with IMATINIB (0.5 nM), 1.32 ± 0.15; with IMATINIB (1 nM), 1.13 ± 0.13; in the experiment with IMATINIB (5 nM) it was 1.39 ± 0.13; in the experiment with IMATINIB (10 nM), 1.3 ± 0.27. For the same test system, the surviving fraction with IMATINIB (50 nM) is 1.31 ± 0.15; in the experiment with IMATINIB (100 nM), 1.46 ± 0.21; with IMATINIB (500 nM), 1.08 ± 0.12; with IMATINIB (1000 nM), 1.1 ± 0.029.

Consider HMLE3 BREAST, for which the surviving fraction in experiment [1] (0.5 nM) came to 1 ± 0.081; in experiment [1] (1 nM), 0.949 ± 0.035; in experiment [1] (5 nM), 1.01 ± 0.04; in experiment [1] (10 nM), 0.998 ± 0.056; in experiment [1] (50 nM), 1.07 ± 0.069; in experiment [1] (100 nM), 1.07 ± 0.1. For the same test system, the surviving fraction in experiment [1] (500 nM) was determined as 0.93 ± 0.076; in experiment [1] (1000 nM) it was 0.735 ± 0.025; in the experiment with IMATINIB (0.5 nM), 1.08 ± 0.038; with IMATINIB (1 nM), 1.14 ± 0.11; in the experiment with IMATINIB (5 nM), 1.11 ± 0.08; in the experiment with IMATINIB (10 nM) it was 1.21 ± 0.062. The surviving fraction amounted to 1.14 ± 0.047 with IMATINIB (50 nM), 1.23 ± 0.13 with IMATINIB (100 nM), 1.16 ± 0.054 in the experiment with IMATINIB (500 nM) and 1.01 ± 0.089 with IMATINIB (1000 nM).

With HS578T BREAST, the surviving fraction was found to be 0.988 ± 0.17 in experiment [1] (0.5 nM); 1.02 ± 0.11 in experiment [1] (1 nM); 0.972 ± 0.14 in experiment [1] (5 nM); 1.04 ± 0.11 in experiment [1] (10 nM); 1.05 ± 0.041 in experiment [1] (50 nM); 0.796 ± 0.14 in experiment [1] (100 nM). For the same test system, the surviving fraction was found to be 0.216 ± 0.028 in experiment [1] (500 nM); 0.191 ± 0.02 in experiment [1] (1000 nM); 1.23 ± 0.27 in the experiment with IMATINIB (0.5 nM); 1.01 ± 0.11 in the experiment with IMATINIB (1 nM); 1.02 ± 0.12 in the experiment with IMATINIB (5 nM); 1.14 ± 0.27 with IMATINIB (10 nM). The surviving fraction was 1.21 ± 0.18 with IMATINIB (50 nM), 1.07 ± 0.1 with IMATINIB (100 nM), 1.1 ± 0.16 with IMATINIB (500 nM) and 1.2 ± 0.17 with IMATINIB (1000 nM).
